Assays:
[1] = tested on: lymphocytes in the peripheral blood; assay: Effect on the number of lymphocytes in the peripheral blood; format: in vivo, Sprague-Dawley (SD) rats; conditions: oral, SD rats
Description: S1P1, which is expressed on the surface of lymphocytes, is essential for lymphocytes to leave the secondary lymphoid tissue and then enter into the peripheral circulation. Small molecule agonists of S1P1 can activate the receptor and result in an internalization effect on the receptor. This mechanism is a currently known mechanism by which lymphocytes are prevented from leaving the secondary lymphoid tissue, then resulting in an decreased number of lymphocytes in the peripheral circulation. In order to determine whether the compounds provided by present invention can reduce the number of lymphocytes in the peripheral blood, an in vivo effect experiment on lymphocytes is performed.
An appropriate amount of compound 2 was prepared as a suspension with sodium carboxymethylcellulose (CMC-Na) and was given orally to three Sprague-Dawley (SD) rats. Blood samples (0.5 ml) were collected at 30 min before the administration and at different time points after the administration (the collected blood samples were placed in EP tubes containing an appropriate amount of EDTA-2K solution), and analyzed on ADVIA2120 blood cell analyzer directly.

[2] = tested on: heart rate and QT interval; assay: Telemetry assay of cardiovascular function in conscious beagle dog; format: in vivo; conditions: within 24 hours after administration
Method: To determine whether Compound 2 has an effect on heart rate and QT interval, the compound was evaluated in a telemetry assay in conscious beagle dog.
An appropriate amount of CMC-Na was prepared as a 0.5% CMC-Na (w/v) solution with sterilized water for injection. The solution was prepared one day before administration.
Solutions of Compound 2 (samples) with the concentration of 2, 6 and 20 mg/mL were prepared one day before administration as follows. An appropriate amount of Compound 2 was added into an appropriate amount of 0.5% CMC-Na solution. The obtained mixture was emulsified and homogenized on an emulsification isotropic machine. Theoretical concentrations of Compound 2 in the prepared sample solutions were 2, 6 and 20 mg/mL.
A total of 8 animals and a Double Latin squared experimental design were used in this experiment. Administration cycles were separated by 3-5 days. One day before each administration cycle, the animals were weighted and fasted overnight. On the day of administration, telemetry system (Implantable physiological signal telemetry system 1, Data Science International Inc., USA) was turned on, test parameters were set, implants were activated and physiological indexes of the animals were recorded. […] Parameters would be analyzed using artificial set after the collection was completed. The data was, firstly, analyzed by PONEMAH Version 4.8 software automatically, and then checked point by point artificially for selected values. […] Time at which values were selected were recorded.
Statistical software SPSS13.0 was used to process data in this experiment. […] Indexes of blood pressure, electrocardiogram, respiration and body temperature were expressed as “mean±standard error”, and then analyzed according to following procedure: firstly, homogeneity test was performed on the data by use of Levene Test, and if the data was uniform ([…]), single-factor variance analysis was performed; and if the result of variance analysis was significant (P≤0.05), Dunnett's multiple comparison was performed on difference between vehicle group and sample group. […]

[3] = target: human S1P3 (Homo sapiens, UniProt Q99500); assay: Internalization effect experiment of S1P3 (CHO-S cells); format: cell-based
Method: CHO—S cells bearing human S1P1 with Myc tag were harvested and then adjusted to a density of one million cells per mL by Dulbecco's modified Eagle's medium (DMEM). […] After incubation, the mixture was centrifuged at 800 RPM for 5 minutes to obtain the cells. The cells were resuspended in FACS buffer (PBS containing 1% BSA), and Myc antibody labelled with fluorescein isothiocyanate (FITC) (from Californian Miltenyi Biotec GmbH, USA) was added in and incubated for 1 hour on ice. The cells were washed, resuspended in pre-cooled FACS buffer and analysed by FACS Calibur flow cytometry.
CHO—S cells expressing human S1P3 were used to perform internalization detection test. Besides cells, experimental method was the same with the method of the internalized detection experiment of S1P1.

human S1P3, sequence (Q99500 whole entry): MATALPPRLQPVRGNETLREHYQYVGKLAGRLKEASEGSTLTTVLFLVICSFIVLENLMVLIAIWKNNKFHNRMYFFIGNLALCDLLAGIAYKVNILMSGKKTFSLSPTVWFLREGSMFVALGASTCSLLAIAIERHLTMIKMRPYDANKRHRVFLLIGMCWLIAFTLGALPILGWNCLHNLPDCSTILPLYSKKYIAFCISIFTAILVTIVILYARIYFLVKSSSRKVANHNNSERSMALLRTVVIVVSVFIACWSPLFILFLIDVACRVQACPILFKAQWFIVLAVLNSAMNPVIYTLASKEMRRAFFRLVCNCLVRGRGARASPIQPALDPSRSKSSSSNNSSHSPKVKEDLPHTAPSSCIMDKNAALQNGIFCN

CC(C)Cc1ccc(-c2nc(-c3ccc(CN4CC(C(=O)O)C4)c(F)c3)no2)cc1 [Compound 2, 1-{2-fluoro-4-[5-(4-isobutylphenyl)-1,2,4-oxadiazol-3-yl]-benzyl}-3-azetidine carboxylic acid]
number of peripheral mononuclear cells and other leukocytes ([1]; in words): unobviously
reduction of lymphocytes in the peripheral blood ([1]; dose of 0.01 mg/kg): more than 50%
reduction of lymphocytes in the peripheral blood ([1]; dose of 1 mg/kg, in words): the most reduction
number of lymphocytes in the peripheral blood ([1]; three doses, 30 to 480 minutes after administration, in words): reduced the number of lymphocytes in the peripheral blood effectively
QT interval versus vehicle [2]: no significant difference
QTcF interval versus vehicle [2]: no significant difference
heart rate versus vehicle [2]: no significant difference
internalization activation effect on S1P3 subtype ([3]; CHO-S cells expressing human S1P3, in words): no internalization activation effect on S1P3 subtype
EC50 ([3]; CHO-S cells expressing human S1P3, read-out: Receptor Internalization (EC50) S1P3): > 1000 nM

Source: US10280158B2, “Immune adjustment compound, use thereof and pharmaceutical composition comprising same” (SUZHOU CONNECT BIOPHARMACEUTICALS, LTD., priority 2013, dated 2019)
